The conditions of data set [1]: mice; cited from earlier work.
The conditions of data set [2]: humans; cited from earlier work.
The conditions of data set [3]: fighting mice; cited from earlier work.
For data set [4] the following is noted: rodents; cited from earlier work.
The test system of data set [5] is kappa-1 receptor. The experiment in a line: Preliminary screening, binding at the kappa-1 receptor. The note with it: in words. On the procedure: To assess the potential addiction-interrupting effects of the newly synthesized iboganoids, compounds 7a,b,c were tested for binding at the 5-HT transporter and the […] and kappa-2 opiate receptors, molecular targets known to modulate mesolimbic dopaminergic function.

Data set [6] is described as follows: In vivo evaluation, behavior of rats after injection. The note with it: for tremorigenic effect relative to ibogaine: comparison in words with ibogaine at 40 mg/kg; for tremors: 7a 100 μmol/kg; for tremors / locomotor activity and ataxia / behavioral symptoms: 7b comparable dose; for locomotor activity and ataxia / behavioral symptoms: injection, 7a and 7c 100 μmol/kg, 7d 150 μmol/kg. On the procedure: Onset of symptoms was evident within 2 minutes, and the effects were most severe by 5 min. Signs of recovery became evident by 40 min post-injection and the animals appeared fully recovered after 60 min. Mild tremors were observed between 3 and 8 min post-injection.

The target in data set [7] is T1, 5-HT transporter (Homo sapiens, UniProt P31645).
T1 construct: from tissue; host or cells: human occipital cortex membranes
The experiment in a line: Full competition experiments at the 5-HT transporter in human occipital cortex ([125I]RTI55). The format is binding. The following applies: for relative potency at the 5-HT transporter: comparison with ibogaine or noribogaine, in words; for IC50 / nH: human occipital cortex, mean ± S.D.; for IC50: 0.01 nM [125I]RTI55, 1 μM benztropine, 25° C., two determinations in triplicate; for nH: 0.01 nM [125I]RTI55. The method, then: ^a Membranes isolated from human occipital cortex were incubated for
hr at 25° C., in the presence of 1 μM benztropine, with 0.01 nM
[^125 I]RTI55 and varying concentrations of the respective compounds.
Data analysis was performed with EBDA (DRUG). The data presented are the
mean ± S.D. of two independent determinations conducted in triplicate,
nonspecific binding was evaluated using 50 μm-cocaine. (See, J.K.
Staley et al., J. Neurochem., 62, 549 (1994)).

Data set [8] addresses T2, kappa-1 receptor (Homo sapiens, UniProt P41145).
T2 construct: from tissue; host or cells: human insular cortex membranes
The experiment in a line: Competition binding at the kappa-1 receptor of human insular cortex ([3H]U693593). The note with it: for IC50: IC50, human insular cortex; for IC50 / nH: mean ± S.D.; for relative potency at the kappa-1 receptor: comparison with ibogaine, in words; for nH: human insular cortex. The method, then:
Data analysis was performed with EBDA (DRUG); NS = nonspecific
The data presented are the mean ± S.D. of two independent

Data set [9] relates to NMDA receptor. The experiment in a line: NMDA receptor binding in human caudate (FIG. 3A). The following applies: comparison in words. On the procedure:
The affinity of compounds 7a-c for the NMDA receptor was measured in human brain tissue employing the methodology of P. Popik et al., Psychopharmacol., 114, 672 (1994).

For data set [10] the following is noted: humans; cited from earlier work. This is another data set of the same source.
For data set [11] the following is noted: cats; cited from earlier work.
The conditions of data set [12]: other animals; cited from earlier work.
The conditions of data set [13]: dogs and rabbits; cited from earlier work.
In data set [14] the test system is dopamine levels in the nucleus accumbens and striatum. The following applies: nucleus accumbens and striatum (ibogaine: striatum); cited from earlier work.
[15] abbreviates: rats, 100 μmol/kg, post-injection.

Entries after “also recorded” stand apart in the source; their conditions may differ.

As for `CN1CCc2c([nH]c3ccccc23)C(c2ccccc2)C1` (stereo not shown) [3-methyl-5-phenyl-1,2,3,4,5,6-hexahydroazepino[4,5-b]indole], the antidepressant activity result in [1] is listed as “displayed antidepressant activity”.

Regarding `c1ccc(C2CNCCc3c2[nH]c2ccccc32)cc1` (stereo not shown) [5-phenyl-1,2,3,4,5,6-hexahydroazepino[4,5-b]indole], the antidepressant activity result in data set [1] was “displayed antidepressant activity”.

`Cn1c2c(c3ccccc31)CCNCC2` [6-methyl-1,2,3,4,5,6-hexahydroazepino[4,5-b]indole]: the neuroleptic activity result in data set [2] is “did not exhibit neuroleptic activity in humans”. Besides, in data set [3], the aggressive behavior result was “antagonize aggressive behavior in fighting mice”. Also, in data set [4], the conditioned avoidance entry was “block conditioned avoidance”; the “hypothermia and anorexigenic behavior” value is “induce hypothermia and anorexigenic behavior in rodents”.

As to `CCN1CCc2c(sc3ccccc23)C(c2ccccc2)C1` (stereo not shown) [Compound 7a, 3-Ethyl-5-phenyl-1,2,3,4,5-pentahydroazepino[4,5-b]benzothiophene], the “activity/affinity at the kappa-1 receptor” value (“activity/affinity” for short) in data set [5] is given as “some activity”. For the same molecule, in data set [6], the “tremorigenic effect relative to ibogaine” value is recorded as “much less tremorigenic than ibogaine”. Further, in data set [6] (rats, 100 μmol/kg), the breathing entry is “Breathing appeared labored”; the onset of symptoms is not above 2 min; the tail posture entry is “the tail remained outstretched and limp”; the “time at which effects were most severe” value was not above 5 min. Further, in [6] (setting [15]), the “time at which signs of recovery became evident” value is given as not above 40 min and the “time to full recovery” value was found to be 60 min. Besides, in [6] (rats), the tremors result is on record as “Mild tremors”; the “locomotor activity and ataxia / behavioral symptoms” value is “severe reduction in locomotor activity and ataxia”. In data set [7], the “relative potency at the 5-HT transporter” value is “two- to threefold more potent than ibogaine”, the IC50 was 0.21 ± 0.01 µM and the nH turned out to be 1.0 ± 0.1. In data set [8] (NS = 10 μM Naloxone), this molecule gave an IC50 of 17.2 ± 3.18 µM and a nH of 0.5 ± 0.0. For the same molecule, in data set [8] (NS, Computer-derived), the IC50 amounted to 10.1 ± 2.01 µM and the nH worked out at 1.3 ± 0.1. For the same molecule, the “relative potency at the kappa-1 receptor” value in [8] is “essentially equipotent with ibogaine”.

As for `CCN1CCc2c(sc3ccccc23)C(c2cccc([N+](=O)[O-])c2)C1` (stereo not shown) [Compound 7b, 3-Ethyl-5-(3-nitrophenyl)-1,2,3,4,5-pentahydroazepino[4,5-b]benzothiophene], in [5], the “activity/affinity” value is given as “poor affinity”. Also, in data set [6], the “tremorigenic effect relative to ibogaine” value was “much less tremorigenic than ibogaine”. Also, the tremors result in data set [6] (rats) is “no tremors were observed”. Also, in data set [7], the “relative potency at the 5-HT transporter” value is given as “two- to threefold more potent than ibogaine”, the IC50 turned out to be 0.26 ± 0.06 µM and the nH is 1.0 ± 0.2.

Turning to `CCN1CCc2c(sc3ccccc23)C(c2cccc(Br)c2)C1` (stereo not shown) [Compound 7c, 3-Ethyl-5-(3-bromophenyl)-1,2,3,4,5-pentahydroazepino[4,5-b]benzothiophene], the “activity/affinity” value in data set [5] is “some activity”. The “locomotor activity and ataxia / behavioral symptoms” value in data set [6] (rats) is reported as “No effects were observed”. In data set [7], the “relative potency at the 5-HT transporter” value is recorded as “essentially equipotent with the naturally occurring compound”, the IC50 came out at 0.82 ± 0.16 µM and the nH was found to be 1.2 ± 0.2. The “relative potency at the NMDA site” value in data set [9] is “equipotent with ibogaine; also recorded: about fivefold more potent than 7a,b and noribogaine”. Moreover, in [8] (NS = 10 μM Naloxone), the IC50 came out at 117 ± 14.5 µM and the nH amounted to 0.6 ± 0.1. In data set [8] (NS, Computer-derived), this molecule showed a concentration for half-maximal inhibition (IC50) of 49 ± 0.96 µM and a nH of 0.9 ± 0.1. For the same molecule, the “relative potency at the kappa-1 receptor” value in data set [8] was “significantly less potent”.

Take `CC[C@H]1C[C@H]2C[C@H]3c4[nH]c5ccc(OC)cc5c4CCN(C2)[C@@H]13` [Ibogaine, ibogaine]: in data set [10], the “craving / drug-free status” value was “some addicts reported alleviation or cessation of craving, and a few remained drug-free for several years thereafter; also recorded: effective in reducing craving in some humans while others were unaffected”. Also, the psychostimulant effects result in [11] was “psychostimulant which caused phobia, ataxia and tremors in cats”. Further, in data set [12], the “number of doses required for comparable effects” value was “up to three doses”. In data set [13], the “excitatory effects and local anesthetic activity” value is “unusual excitatory effects and local anesthetic activity”. The dopamine levels result in data set [14] was “reduce dopamine levels in the striatum”.

In the case of `CCC1CC2CC3c4[nH]c5ccc(O)cc5c4CCN(C2)C13` (stereo not shown) [Noribogaine, 12-hydroxyibogamine, reference compound], the nH in [7] came to 0.78 ± 0.06; in data set [8] (NS definition not stated in line), 1.1 ± 0.1. Besides, the concentration for half-maximal inhibition (IC50) in data set [8] (0.3 nM [3H]U693593, 1 hr, 25° C., NS definition not stated in line) stood at 4.24 ± 0.28 µM.

Regarding `CC[C@H]1C[C@@H]2CN3CCc4c([nH]c5ccccc45)[C@](C(=O)OC)(C2)[C@H]13` [R-coronaridine], the dopamine levels entry in data set [14] is “reduced dopamine levels in the nucleus accumbens and striatum”.

Regarding `COC(=O)[C@H]1[C@@H](OC(=O)c2ccccc2)C[C@@H]2CC[C@H]1N2C` [cocaine, reference compound], the “reversal of the reduction in locomotor activity induced by 7b” value in data set [6] (rats, cocaine 10 mg/kg ip, injected 10 min after 7b) was “reversed the reduction in locomotor activity induced by 7b”.

For R-ibogamine [R-ibogaine], the dopamine levels entry in data set [14] was “reduced dopamine levels in the nucleus accumbens and striatum”.

For orientation: IC50 means the point on the concentration scale where inhibition reaches its midpoint. Lower therefore signals higher potency.
